{"source": "patent US7709526B2", "about": "“Use of cyclolignans and new cyclolignans” (Biovitrum AB, priority 2001, dated 2010)", "key": {"[1]": {"test_system": "FM55 melanoma cells", "assay": "Cell viability (XTT), FM55", "type": "cell-based, human", "conditions": "Homo sapiens", "protocol": "(§1) Cell proliferation kit II (Roche Inc.) is based on calorimetric change of the yellow tetrazolium salt XTT in orange formazan dye by the respiratory chain of viable cells (Roehm, N W, et al., J Immunol Methods 142:257-265, 1991). Cells seeded at a concentration of 5000/well in 100 μl medium in a 96-well plate were treated with different drugs in the given concentration. After 24 or 48 h the cells were incubated, according to the manufacturer's protocol, with XTT labelling mixture. After 4 h the formazan dye is quantified using a scanning multiwell spectrophotometer with a 495-nm filter. The absorbance is directly correlated with number of viable cells. The standard absorbance curve was drawn by means of untreated cells seeded at a concentration of from 1000 to 10 000 cells/well with an increasing rate of 1000 cells/well. All standards and experiments were performed in triplicates.\n(§2) 5 different types of cell lines were seeded in 96-well plates (medium volume in a well was 100 μl), at a concentration of 10,000 cells/cm^2 in Minimal Essential Medium supplemented with fetal calf serum. When the cells had reached a concentration of 65,000 cells/cm^2, they were treated with different doses of podophyllotoxin and deoxypodophyllotoxin for 48 h. Cell viability was then assayed (see above). IC50 values for each inhibitor and cell line, calculated as the concentration, resulting in a 50% decrease in cell survival, are shown below. The results are based on 4 different experiments.\nFM55 melanoma cells were cultured in the same way as described in Experiment 3 and were treated with different doses of podophyllotoxin analogues as described in Experiment 3."}, "[2]": {"test_system": "MCF-7 breast cancer cells", "assay": "Cell viability (XTT), MCF-7", "type": "cell-based, human", "conditions": "Homo sapiens, MCF7, 48 h", "protocol": "as §1\nas §2, with “IC50 values for each inhibitor and cell line, calculated as the concentration, resulting in a 50% decrease in cell survival, are shown below. The results are based on 4 different experiments.” left out"}, "[3]": {"test_system": "PC-3 prostate cancer cells", "assay": "Cell viability (XTT), PC-3", "type": "cell-based", "conditions": "Homo sapiens, 48 h", "protocol": "as §1\nas §2, with “IC50 values for each inhibitor and cell line, calculated as the concentration, resulting in a 50% decrease in cell survival, are shown below. The results are based on 4 different experiments.” left out"}, "[4]": {"test_system": "K562/Vcr30 chronic myeloid leukemia cells (cytostatic-resistant)", "assay": "Viability of leukemia cells, K562/Vcr30", "type": "cell-based, human", "conditions": "Homo sapiens; K562/Vcr30, 72 h; read-out: IC50 for viability of leukemia cell lines", "protocol": "(§3) The human chronic myeloid leukemia K562/S and K562/Vcr30 lines and the acute myeloid leukemia cell lines HL60/0 and HL60/Nov were obtained from ATCC. The K562/S and HL60/0 are wild type (non-resistant) cells, whereas K562/Vcr30 and HL60/Nov are cytostatic-resistant sublines. All leukemia cell lines were cultured in RPMI 1640 medium supplemented with 10% fetal bovine serum and with 2 mM glutamine, 1% benzyl-penicillin and streptomycin. The cells were grown in tissue culture flasks maintained at 95% air/5% CO2 atmosphere at 37° C. in a humidified incubator. For the experiments 25,000 cells were cultured in 60-mm plastic dishes or 96-well plastic plates. The experiments on leukemia cells were performed in collaboration with Associate professor Sigurd Vitols, Department of Pharmacology, Karolinska Hospital (Stockholm, Sweden).\nas §1\n(§4) The leukemia cell lines K562/S, K562/Vcr 30, HL60/0 and HL60/Nov were proven to express the IGF-1R. This was assayed by Western blotting analysis, as described in Methods and Experiment 1 and 2. The 4 leukemia cell lines were seeded in 96-well plates (medium volume in a well was 100 μl), in RPMI40 medium supplemented with fetal calf serum. After 24 h podophyllotoxin, deoxypodophyllotoxin and other derivatives were added at different concentrations for 72 h. Cell viability was then assayed (see above). IC50 values for each inhibitor and cell lines are shown below (Table 5). The results are based on 3 different experiments."}, "[5]": {"test_system": "HL60 acute myeloid leukemia cells", "assay": "Viability of leukemia cells, HL60", "type": "cell-based, human", "conditions": "Homo sapiens, HL-60; HL60, 72 h; read-out: IC50 for viability of leukemia cell lines", "protocol": "as §3, §1, §4"}, "[6]": {"test_system": "HL60/Nov acute myeloid leukemia cells (cytostatic-resistant)", "assay": "Viability of leukemia cells, HL60/Nov", "type": "cell-based, human", "conditions": "Homo sapiens, HL-60, 72 h, read-out: IC50 for viability of leukemia cell lines", "protocol": "as §3, §1, §4"}, "[7]": {"target": "insulin receptor tyrosine kinase (Homo sapiens, UniProt P06213)", "sequence (P06213 28-1382)": "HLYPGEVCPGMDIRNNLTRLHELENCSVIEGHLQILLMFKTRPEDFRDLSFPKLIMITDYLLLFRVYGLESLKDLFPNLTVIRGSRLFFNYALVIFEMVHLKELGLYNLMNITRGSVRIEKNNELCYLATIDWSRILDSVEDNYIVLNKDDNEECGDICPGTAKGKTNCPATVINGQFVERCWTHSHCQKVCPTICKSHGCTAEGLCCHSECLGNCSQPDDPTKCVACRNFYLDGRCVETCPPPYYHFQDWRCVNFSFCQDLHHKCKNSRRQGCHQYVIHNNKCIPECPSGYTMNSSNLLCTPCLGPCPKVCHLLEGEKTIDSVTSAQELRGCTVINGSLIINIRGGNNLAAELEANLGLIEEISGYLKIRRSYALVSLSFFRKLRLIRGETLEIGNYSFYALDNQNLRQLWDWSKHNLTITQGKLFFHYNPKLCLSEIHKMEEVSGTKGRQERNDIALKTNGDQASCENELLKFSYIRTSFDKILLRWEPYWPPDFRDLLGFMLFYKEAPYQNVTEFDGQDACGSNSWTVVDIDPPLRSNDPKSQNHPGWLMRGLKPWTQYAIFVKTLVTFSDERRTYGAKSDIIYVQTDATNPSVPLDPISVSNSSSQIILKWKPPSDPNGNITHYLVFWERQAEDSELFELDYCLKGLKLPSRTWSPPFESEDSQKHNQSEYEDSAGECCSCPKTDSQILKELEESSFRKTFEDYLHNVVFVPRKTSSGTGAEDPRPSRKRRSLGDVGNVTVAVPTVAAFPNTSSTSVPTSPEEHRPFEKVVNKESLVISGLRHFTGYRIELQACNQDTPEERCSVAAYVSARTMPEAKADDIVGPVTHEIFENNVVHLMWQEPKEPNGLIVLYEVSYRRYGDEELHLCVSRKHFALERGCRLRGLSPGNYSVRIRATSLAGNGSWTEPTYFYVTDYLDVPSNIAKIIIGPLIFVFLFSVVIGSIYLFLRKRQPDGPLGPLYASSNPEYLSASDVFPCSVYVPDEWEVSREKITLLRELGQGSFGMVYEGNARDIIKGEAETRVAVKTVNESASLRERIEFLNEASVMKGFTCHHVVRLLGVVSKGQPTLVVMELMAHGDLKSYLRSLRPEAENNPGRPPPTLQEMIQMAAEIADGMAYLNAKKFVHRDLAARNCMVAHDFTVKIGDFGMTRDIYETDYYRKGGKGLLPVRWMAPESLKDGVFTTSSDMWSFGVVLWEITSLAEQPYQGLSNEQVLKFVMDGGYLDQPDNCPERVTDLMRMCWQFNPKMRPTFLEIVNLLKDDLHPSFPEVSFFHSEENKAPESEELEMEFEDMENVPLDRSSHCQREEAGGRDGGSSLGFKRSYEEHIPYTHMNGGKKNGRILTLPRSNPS", "assay": "Interference with insulin receptor tyrosine kinase", "type": "cell-based"}, "[8]": {"test_system": "receptor of platelet-derived growth factor", "assay": "Tyrosine phosphorylation of platelet-derived growth factor receptor", "type": "cell-based"}, "[9]": {"test_system": "malignant cells", "assay": "Cell death in malignant cells", "type": "cell-based"}, "[10]": {"test_system": "cells devoid of insulin-like growth factor-1 receptors", "assay": "Cell death in cells devoid of IGF-1R", "type": "cell-based"}}, "note": "Like-named read-outs stand apart in the source and are kept apart here."}
{"compound": "COc1cc([C@@H]2c3cc4c(cc3[C@H](O)[C@H]3COC(=O)[C@H]23)OCO4)cc(OC)c1OC", "note": "[Podophyllotoxin, podophyllotoxin]", "values": [{"measurement": "IC50", "setting": "[1]; FM55, Experiment 4 (Table 4), read-out: IC50 for viability of FM55 cells", "result": 50, "unit": "nM"}, {"measurement": "IC50", "setting": "[1]; FM55, melanoma, 48 h (Table 3), read-out: IC50 for cell viability", "result": 40, "unit": "nM"}, {"measurement": "IC50", "setting": "[2]", "result": 70, "unit": "nM"}, {"measurement": "IC50", "setting": "[3]", "result": 60, "unit": "nM"}, {"measurement": "IC50", "setting": "[4]", "result": 7, "unit": "nM"}, {"measurement": "IC50", "setting": "[5]", "result": 3, "unit": "nM"}, {"measurement": "IC50", "setting": "[6]", "result": 2, "unit": "nM"}, {"measurement": "interference with the insulin receptor tyrosine kinase", "setting": "[7]", "result": "do not interfere"}, {"measurement": "interference with tyrosine phosphorylation of the receptor of platelet-derived growth factor", "setting": "[8]", "result": "Neither do they interfere"}, {"measurement": "cell death in malignant cells (in words)", "setting": "[9]", "result": "extensive cell death"}, {"measurement": "response of cells devoid of IGF-1R (in words)", "setting": "[10]", "result": "resistant"}]}
